In US20080194585A1, “Fungicidal Pyrazine Derivatives” (priority 2005, published 2008):
Marks after values point to notes of the source that are not given here.

Tests used:
[1] = test system: Erysiphe graminis f. sp. tritici; assay: Test L: wheat powdery mildew, preventive spray on wheat seedlings; settings: 100 = 100% disease control, 0 = no control; for Test L disease control rating: 40 ppm (marked *)
[2] = test system: Phytophthora infestans; assay: whole plant or invertebrate; assay type: in vivo; settings: for Test F disease control rating: 100 = 100% disease control
[3] = test system: Rhizoctonia oryzae; assay: Test G: turf brown patch, preventive spray on creeping bent grass seedlings; settings: 100 = 100% disease control, 0 = no control; for Test G disease control rating: 40 ppm (marked *)
Procedure: (the causal agent of turf brown patch) and incubated in a saturated atmosphere at 27° C. for 24 h, and then moved to a growth chamber at 27° C. for 5 days, after which disease ratings were made.

[4] = test system: Septoria tritici; assay: Test J: wheat leaf blotch, preventive spray on wheat seedlings; assay type: in vivo; settings: 100 = 100% disease control, 0 = no control; for Test J disease control rating: 40 ppm (marked *)
From the text: A dash (-) indicates no test results.

[5] = test system: Colletotrichum orbiculare; assay: Test B: cucumber Colletotrichum anthracnose, preventive spray on cucumber seedlings; settings: 100 = 100% disease control, 0 = no control; for Test B disease control rating: 40 ppm (marked *)
[6] = test system: fusarium graminearium; assay: Test I: wheat head scab, preventive spray on wheat seedlings; settings: 100 = 100% disease control
Procedure: (the causal agent of wheat head scab) and incubated in a saturated atmosphere at 20° C. for 72 h, and then moved to a growth chamber at 22° C. for 5 days, after which disease ratings were made.

[7] = test system: Septoria nodorum; assay: Test H: wheat glum blotch, preventive spray on wheat seedlings; settings: 100 = 100% disease control, 0 = no control
Procedure: (the causal agent of wheat glum blotch) and incubated in a saturated atmosphere at 20° C. for 48 h, and then moved to a growth chamber at 22° C. for 5 days, after which disease ratings were made.

[8] = test system: Pythium aphanidermatum; assay: Test A: bluegrass pythium blight, preventive spray on bluegrass seedlings; settings: for Test A disease control rating: 100 = 100% disease control
[9] = test system: Plasmopara viticola; assay: Test D: grape downy mildew, spray after inoculation of grape seedlings; assay type: in vivo; settings: 100 = 100% disease control, 0 = no control; for Test D disease control rating: 40 ppm (marked *)
From the text: Upon removal, disease ratings were made. […] A dash (-) indicates no test results.

[10] = test system: Puccinia recondita f. sp. tritici; assay: Test K: wheat leaf rust, preventive spray on wheat seedlings; settings: for Test K disease control rating: 40 ppm (marked *), 100 = 100% disease control, 0 = no control
[11] = test system: Botrytis cinerea; assay: Test E: tomato botrytis, preventive spray on tomato seedlings; settings: 40 ppm (marked *); 100 = 100% disease control, 0 = no control
[12] = 40 ppm (marked *), 0 = no control
[13] = 200 ppm, 0 = no control relative to controls

SMILES	Test L disease control rating [1]	Test F disease control rating [2, 12]	Test G disease control rating [3]	Test J disease control rating [4]	Test B disease control rating [5]	Test I disease control rating [6, 12]	Test H disease control rating ([7]; 40 ppm (marked *))	Test A disease control rating [8, 12]	Test D disease control rating [9]	Test K disease control rating [10]	also measured
CC(C)Cn1c(-c2c(F)cccc2F)cnc(-n2cccn2)c1=O [Compound 342, 6-(2,6-Difluorophenyl)-1-(2-methylpropyl)-3-(1H-pyrazol-1-yl)-2(1H)-pyrazinone]	–	–	–	–	–	–	–	–	–	–	pest or weed control at 200 ppm ([1]; Blumeria graminis, in Triticum aestivum, 168 h, read-out: Test L disease control rating, 200 ppm): 96%; pest or weed control at 200 ppm ([2]; Phytophthora infestans, in Solanum lycopersicum, topical, 144 h, read-out: Test F disease control rating): 0%; pest or weed control at 200 ppm ([3]; Waitea circinata, in Agrostis stolonifera, topical, 144 h, read-out: Test G disease control rating, 200 ppm): 95%; pest or weed control at 200 ppm ([4]; Zymoseptoria tritici, 528 h, 200 ppm, read-out: Test J disease control rating): 82%; pest or weed control at 200 ppm ([5]; Colletotrichum orbiculare, in Cucumis sativus, 144 h, read-out: Test B disease control rating, 200 ppm): 0%; pest or weed control at 200 ppm ([6]; Fusarium, in Triticum aestivum, topical, 192 h, read-out: Test I disease control rating, 200 ppm, 0 = no control): 0%; pest or weed control at 200 ppm ([7]; Parastagonospora nodorum, in Triticum aestivum, topical, 168 h, read-out: Test H disease control rating, 200 ppm): 0%; pest or weed control at 200 ppm ([8]; Pythium aphanidermatum, 120 h, read-out: Test A disease control rating): 0%; pest or weed control at 200 ppm ([9]; Plasmopara viticola, 168 h, 200 ppm, read-out: Test D disease control rating): 0%; pest or weed control at 200 ppm ([10]; Puccinia recondita, in Triticum aestivum, 192 h, read-out: Test K disease control rating): 98%
O=c1c(-n2cccn2)nc(Cl)c(-c2c(F)cccc2F)n1Cc1ccccc1F [compound 330]	71* %	0* %	41* %	100* %	0* %	0* %	99* %	0* %	0* %	100* %	–
Cc1ccn(-c2nc(Cl)c(-c3c(F)cccc3F)n(Cc3ccc(F)cc3)c2=O)n1 [compound 331]	76* %	0* %	16* %	100* %	90* %	0* %	100* %	0* %	47* %	100* %	–
Cc1ccc(-n2c(-c3c(F)cccc3F)c(Cl)nc(-n3ccc(C)n3)c2=O)cc1 [compound 332]	71* %	0* %	0* %	98* %	0* %	0* %	94* %	0* %	24* %	95* %	–
Cc1ccc(-n2c(-c3c(F)cccc3F)c(Cl)nc(-n3cccn3)c2=O)cc1 [compound 333]	0* %	0* %	17* %	98* %	37* %	0* %	99* %	0* %	47* %	99* %	–
Cc1ccc(-n2c(-c3c(F)cccc3F)c(Cl)nc(-n3cccn3)c2=O)c(C)c1 [compound 334]	0* %	0* %	0* %	96* %	0* %	0* %	–	0* %	0* %	91* %	Test H disease control rating ([7]; 200 ppm): 0%
Cc1ccc(-n2c(-c3c(F)cccc3F)c(Cl)nc(-n3ccc(C)n3)c2=O)c(C)c1 [compound 335]	71* %	0* %	0* %	99* %	0* %	0* %	98* %	0* %	0* %	91* %	–
O=c1c(-n2cccn2)nc(Cl)c(-c2c(F)cccc2F)n1-c1cccc(F)c1 [compound 337]	0* %	0* %	29* %	100* %	76* %	0* %	99* %	0* %	0* %	95* %	–
Cc1ccn(-c2nc(Cl)c(-c3c(F)cccc3F)n(-c3cccc(F)c3)c2=O)n1 [compound 338]	0* %	0* %	16* %	98* %	80* %	0* %	100* %	0* %	0* %	99* %	–
O=c1c(-n2cccn2)nc(Cl)c(-c2c(F)cccc2F)n1-c1ccccc1F [compound 339]	0* %	0* %	0* %	100* %	0* %	0* %	99* %	0* %	0* %	89* %	–
Cc1ccn(-c2nc(Cl)c(-c3c(F)cccc3F)n(-c3ccccc3F)c2=O)n1 [compound 340]	0* %	0* %	0* %	95* %	0* %	0* %	99* %	0* %	0* %	95* %	–
Cc1ccn(-c2nc(Cl)c(-c3c(F)cccc3F)n(Cc3ccc(F)cc3)c2=O)n1 [compound 341]	63* %	0* %	0* %	98* %	52* %	0* %	99* %	0* %	79* %	100* %	–
COc1ccccc1-n1c(-c2c(F)cccc2F)c(Cl)nc(-n2cccn2)c1=O [compound 393]	0* %	–	0* %	33* %	41* %	–	73* %	–	–	89* %	Test F disease control rating [2, 13]: 0%; Test I disease control rating [6, 13]: 0%; Test A disease control rating [8, 13]: 0%; Test E disease control rating [11]: 29* %
COc1cccc(-n2c(-c3c(F)cccc3F)c(Cl)nc(-n3cccn3)c2=O)c1 [compound 394]	99* %	–	47* %	100* %	99* %	–	100* %	–	–	100* %	Test F disease control rating [2, 13]: 0%; Test I disease control rating [6, 13]: 78%; Test A disease control rating [8, 13]: 0%; Test E disease control rating [11]: 99* %
COc1ccc(-n2c(-c3c(F)cccc3F)c(Cl)nc(-n3cccn3)c2=O)cc1 [compound 395]	0* %	–	0* %	99* %	57* %	–	95* %	–	–	99* %	Test F disease control rating [2, 13]: 0%; Test I disease control rating [6, 13]: 0%; Test A disease control rating [8, 13]: 0%; Test E disease control rating [11]: 80* %
O=c1c(-n2cccn2)nc(Cl)c(-c2c(F)cccc2F)n1-c1ccccc1OC(F)(F)F [compound 396]	91* %	–	0* %	85* %	13* %	–	89* %	–	–	94* %	Test F disease control rating [2, 13]: 0%; Test I disease control rating [6, 13]: 0%; Test A disease control rating [8, 13]: 0%; Test E disease control rating [11]: 70* %
